The values below come from ChEMBL document CHEMBL1123744, “A quantitative structure-activity relationship analysis of some 4-aminodiphenyl sulfone antibacterial agents using linear free energy and molecular modeling methods” (J Med Chem, 1987).

This experiment relates to Mycobacterium lufu. The experiment can be described thus: In vitro inhibition of Mycobacterium lufu dihydopterate synthase.

Each structure is given as a SMILES string.

As for `CCNc1ccc(S(=O)(=O)c2ccc(N)cc2)c(OC)c1`, the pC was found to be 5.75.
`Nc1ccc(S(=O)(=O)c2ccc(N)cc2)cc1` registered a pC of 5.92.
On to `CCNc1ccc(S(=O)(=O)c2ccc(N)cc2)cc1`, for which the pC came to 5.56.
As for `COc1cc(N)ccc1S(=O)(=O)c1ccc(N)cc1`, the pC is 5.73.
The result for `CCCCNc1ccc(S(=O)(=O)c2ccc(N)cc2)c(OC)c1` reads 5.99; that for `Nc1ccc(S(=O)(=O)c2ccccc2N)cc1`, 5.65.
The result for `Nc1ccc(S(=O)(=O)c2ccccc2)cc1` reads 4.92; that for `Cc1cc(N)ccc1S(=O)(=O)c1ccc(N)cc1`, 6.19; that for `Nc1ccc(S(=O)(=O)c2ccc(N)cc2N)cc1`, 5.99.
In the case of `COc1cc(S(=O)(=O)c2ccc(N)cc2)ccc1N` it was 5.56.
With `COC(=O)CNc1ccc(S(=O)(=O)c2ccc(N)cc2)cc1`, the pC was 5.65.
In the case of `CCCNc1ccc(S(=O)(=O)c2ccc(N)cc2)cc1O` it was 5.64.
As to `CCCNc1ccc(S(=O)(=O)c2ccc(N)cc2)cc1OC`, the pC was 5.4.
With `N#Cc1cc(N)ccc1S(=O)(=O)c1ccc(N)cc1`, the pC was determined as 5.65.
For `CN(C)c1ccc(S(=O)(=O)c2ccc(N)cc2)cc1`, the pC was determined as 5.75.
`NNC(=O)c1ccc(S(=O)(=O)c2ccc(N)cc2)cc1` came in with a pC of 4.9.
The result for `CCNc1ccc(S(=O)(=O)c2ccc(N)cc2)cc1OC` reads 5.49.
`Nc1ccc(S(=O)(=O)c2ccc(N)cc2Cl)cc1` displayed a pC of 6.32.
The molecule `Nc1ccc(S(=O)(=O)c2ccc([N+](=O)[O-])cc2)cc1` showed a pC of 4.51.
Consider `Cc1ccc(S(=O)(=O)c2ccc(N)cc2)cc1`, for which the pC was 5.09.
The result for `CCNc1ccc(S(=O)(=O)c2ccc(N)cc2)c(O)c1` reads 6.14.
The result for `CC(=O)Nc1ccc(S(=O)(=O)c2ccc(N)cc2)cc1` reads 5.15; that for `Nc1ccc(S(=O)(=O)c2ccc(C(=O)O)cc2)cc1`, 5.44; that for `Nc1ccc(S(=O)(=O)c2ccc(Cl)cc2)cc1`, 4.89.
`Nc1ccc(S(=O)(=O)c2ccccc2[N+](=O)[O-])cc1`: the pC turned out to be 5.61.
On to `COC(=O)c1ccc(S(=O)(=O)c2ccc(N)cc2)cc1`, for which the pC came out at 4.93.
For `Nc1ccc(S(=O)(=O)c2ccc(N)c(O)c2)cc1`, the pC was 6.07.
`Nc1ccc(S(=O)(=O)c2ccc(O)cc2)cc1` registered a pC of 5.82.
The result for `Nc1ccc(S(=O)(=O)c2ccc(NCC(=O)O)cc2)cc1` reads 6.06; that for `CCCNc1ccc(S(=O)(=O)c2ccc(N)cc2)c(OC)c1`, 5.92; that for `CCCNc1ccc(S(=O)(=O)c2ccc(N)cc2)c(O)c1`, 5.71.
In the case of `Nc1ccc(S(=O)(=O)c2ccc([N+](=O)[O-])cc2N)cc1` it was 4.93; in that of `COc1ccc(S(=O)(=O)c2ccc(N)cc2)cc1`, 5.12; in that of `CNc1ccc(S(=O)(=O)c2ccc(N)cc2)cc1`, 5.89.
In the case of `Nc1ccc(S(=O)(=O)c2ccc(N)cc2[N+](=O)[O-])cc1` it was 5.87; in that of `CCNc1ccc(S(=O)(=O)c2ccc(N)cc2)cc1O`, 5.7.
